Assay results reported in paper PMC6934184, “Selective DNA-PKcs inhibition extends the therapeutic index of localized radiotherapy and chemotherapy” (The Journal of Clinical Investigation, 2019).

Target: T1, CSNK1G2 (CK1 gamma 2) (Homo sapiens, UniProt P78368)
T1 construct: purchased Thermo Fisher Scientific (Life Technologies) SelectScreen
Assay: SelectScreen Z'LYTE
Type: biochemical
Summary of the method: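 Compound tested in SelectScreen activity assays, Z'LYTE for CSF1R, CDK1/cyclin B and MAP2K6 and Adapta for CAMK1. ATP for CAMK1 was listed as 10, and Km app was used for CSF1R. Results are expressed in percent.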

T1 sequence (P78368 whole entry): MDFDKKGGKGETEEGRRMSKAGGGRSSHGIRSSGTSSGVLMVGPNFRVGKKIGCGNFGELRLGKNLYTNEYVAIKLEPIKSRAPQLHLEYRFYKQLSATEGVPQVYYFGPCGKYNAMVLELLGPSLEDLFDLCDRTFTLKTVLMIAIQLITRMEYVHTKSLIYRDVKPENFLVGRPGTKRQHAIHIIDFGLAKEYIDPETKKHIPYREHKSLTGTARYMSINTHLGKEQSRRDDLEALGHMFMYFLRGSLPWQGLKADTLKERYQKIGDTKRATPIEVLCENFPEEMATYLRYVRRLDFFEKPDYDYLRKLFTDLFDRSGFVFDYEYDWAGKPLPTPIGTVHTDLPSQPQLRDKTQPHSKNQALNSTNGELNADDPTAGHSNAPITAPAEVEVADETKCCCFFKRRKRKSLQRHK

CN(C(=O)CN1CCOCC1)c1ccc2sc3c(-c4cccc5c(=O)cc(N6CC7CCC(C6)O7)oc45)cccc3c2c1 [NU5455]
inhibition at 1 µM: -9.3%
